These molecules were tested against wild-type human cardiac sodium channel, hNav1.5 (Homo sapiens, UniProt Q14524) (assay: Late INa screening assay (QPatch whole cell patch clamp, HEK293)). Conditions: 10 μM Tefluthrin activating late INa.
wild-type human cardiac sodium channel, hNav1.5, sequence (Q14524 whole entry): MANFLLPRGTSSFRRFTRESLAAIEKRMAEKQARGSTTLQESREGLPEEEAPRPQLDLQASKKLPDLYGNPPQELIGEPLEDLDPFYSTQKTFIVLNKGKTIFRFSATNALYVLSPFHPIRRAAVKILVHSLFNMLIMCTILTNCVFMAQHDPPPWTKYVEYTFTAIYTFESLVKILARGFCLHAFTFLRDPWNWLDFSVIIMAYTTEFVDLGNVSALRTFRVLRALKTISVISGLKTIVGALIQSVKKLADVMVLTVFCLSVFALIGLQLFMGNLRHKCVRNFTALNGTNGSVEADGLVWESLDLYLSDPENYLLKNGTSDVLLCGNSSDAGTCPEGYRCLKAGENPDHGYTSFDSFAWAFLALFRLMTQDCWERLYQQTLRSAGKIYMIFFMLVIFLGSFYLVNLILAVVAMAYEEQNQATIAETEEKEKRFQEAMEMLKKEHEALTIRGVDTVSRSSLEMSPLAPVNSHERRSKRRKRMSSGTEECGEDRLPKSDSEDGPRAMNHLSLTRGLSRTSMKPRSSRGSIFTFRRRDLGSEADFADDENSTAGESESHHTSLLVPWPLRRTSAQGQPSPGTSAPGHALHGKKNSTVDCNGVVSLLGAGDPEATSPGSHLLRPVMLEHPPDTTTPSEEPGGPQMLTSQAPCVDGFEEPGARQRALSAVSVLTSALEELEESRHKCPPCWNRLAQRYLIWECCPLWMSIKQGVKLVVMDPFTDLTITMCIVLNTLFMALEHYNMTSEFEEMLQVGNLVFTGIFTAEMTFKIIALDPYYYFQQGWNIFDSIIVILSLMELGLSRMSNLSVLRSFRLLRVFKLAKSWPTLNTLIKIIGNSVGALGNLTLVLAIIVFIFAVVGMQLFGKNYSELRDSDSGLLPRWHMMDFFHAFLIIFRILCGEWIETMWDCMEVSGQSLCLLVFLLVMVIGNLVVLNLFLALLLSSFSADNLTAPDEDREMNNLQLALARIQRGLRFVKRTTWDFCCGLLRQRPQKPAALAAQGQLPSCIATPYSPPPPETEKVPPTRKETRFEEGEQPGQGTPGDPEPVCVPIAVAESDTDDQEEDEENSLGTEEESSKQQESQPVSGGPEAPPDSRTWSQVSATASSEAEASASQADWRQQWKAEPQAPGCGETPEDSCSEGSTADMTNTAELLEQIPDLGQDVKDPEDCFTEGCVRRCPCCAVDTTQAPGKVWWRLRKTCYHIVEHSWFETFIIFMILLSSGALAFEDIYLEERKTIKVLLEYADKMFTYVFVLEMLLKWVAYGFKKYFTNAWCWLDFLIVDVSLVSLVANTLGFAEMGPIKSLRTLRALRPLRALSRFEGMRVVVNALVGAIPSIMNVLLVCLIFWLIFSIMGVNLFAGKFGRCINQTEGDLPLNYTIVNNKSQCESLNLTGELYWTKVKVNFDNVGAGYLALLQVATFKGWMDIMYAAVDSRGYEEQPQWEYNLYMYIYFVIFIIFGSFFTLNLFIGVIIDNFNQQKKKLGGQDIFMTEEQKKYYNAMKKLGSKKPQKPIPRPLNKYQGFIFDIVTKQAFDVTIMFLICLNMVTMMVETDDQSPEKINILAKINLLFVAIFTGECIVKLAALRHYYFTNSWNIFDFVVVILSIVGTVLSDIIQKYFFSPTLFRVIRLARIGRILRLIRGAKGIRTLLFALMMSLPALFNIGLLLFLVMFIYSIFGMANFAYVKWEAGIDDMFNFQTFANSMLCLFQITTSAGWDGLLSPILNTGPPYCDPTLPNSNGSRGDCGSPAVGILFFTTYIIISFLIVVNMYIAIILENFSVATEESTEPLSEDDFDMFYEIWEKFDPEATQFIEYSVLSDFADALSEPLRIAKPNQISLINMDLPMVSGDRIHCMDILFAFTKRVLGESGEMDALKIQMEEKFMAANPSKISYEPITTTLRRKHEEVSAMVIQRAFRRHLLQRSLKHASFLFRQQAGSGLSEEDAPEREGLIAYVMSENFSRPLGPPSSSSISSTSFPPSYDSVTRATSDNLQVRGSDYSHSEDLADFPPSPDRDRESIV
Type: cell-based
Method: The late sodium current (Late INa) and peak sodium current (Peak INa) assays are performed on an automated electrophysiology platform, QPatch 16× (Sophion Bioscience, Copenhagen, Denmark), which uses the whole cell patch clamp technique to measure currents through the cell membrane of up to 16 cells at a time. The assay uses an HEK293 (human embryonic kidney) cell line heterologously expressing the wild-type human cardiac sodium channel, hNav1.5, purchased from Millipore (Billerica, Mass.). No beta subunits were coexpressed with the Na channel alpha subunit. Cells are maintained with standard tissue culture procedures and stable channel expression is maintained with 400 μg/mL Geneticin in the culture medium. Cells isolated for use on QPatch are incubated for 5 minutes in Detachin 1×(Genlantis, San Diego, USA) at 37° C. to ensure that 80-90% of the cells are single and not part of a cell cluster. Experiments are carried out at 23-25° C.
For both the Late INa and Peak INa assays, series resistance compensation is set to 100% and series resistance and whole-cell compensation are performed automatically. Currents are digitized at 25 kHz and low-pass filtered at 12 kHz and 10 kHz for the late and peak INa assays, respectively. Currents through open sodium channels are automatically recorded and stored in the Sophion Bioscience Oracle database (Sophion Bioscience, Copenhagen, Denmark). Analysis is performed using QPatch Assay and database software and data are compiled in Excel.
Compound stocks are routinely made by the Gilead Sample Bank in plastic vials to 10 mM in dimethyl sulfoxide (DMSO). In some cases, when compounds are not soluble in DMSO, they are made in 100% ethanol. Stocks are sonicated as necessary. The extracellular solution for screening Late INa is composed of: 140 mM NaCl, 4 mM KCl, 1.8 mM CaCl2, 0.75 mM MgCl2 and 5 mM HEPES with pH adjusted to 7.4 using NaOH. The intracellular solution used to perfuse the inside of the cells for both the Late INa and Peak INa assays contains: 120 mM CsF, 20 mM CsCl, 5 mM EGTA, 5 mM HEPES and pH adjusted to 7.4 with CsOH. Compounds are diluted in extracellular solution to 1 μM in glass vials and then transferred to glass well plates before robotic addition to the cells. The 0 mM Na extracellular solution (0Na-ECF) used at the end of each experiment for the Late INa and Peak INa assays to measure baseline current contains: 140 mM N-methyl-D-glucamine; 4 mM KCl; 1.8 mM CaCl2; 0.75 mM MgCl2; 5 mM HEPES and pH was adjusted to 7.4 with HCl.
For the Late INa assay, sodium channels are activated every 10 seconds (0.1 Hz) by depolarizing the cell membrane to −20 mV for 250 milliseconds (ms) from a holding potential of −120 mV. In response to a −20 mV voltage step, typical hNav1.5 sodium currents activate rapidly to a peak negative current and then inactivate nearly completely within 3-4 ms.
Compounds were tested to determine their activity in blocking the late sodium current. Late INa was generated by adding 10 μM Tefluthrin (pyrethroid) to the extracellular solution while recording Na currents. […] ATX-II and tefluthrin occupy distinct, non-overlapping binding sites and modify Na^+ channel function differently to increase late INa. […] After establishing the whole cell recording configuration, late INa activator is added to each well 4 times over a 16-17 minute period so that the late component of the Na current reaches a stable value.
Results are reported as percent block of late INa.
With O=C1c2cc(-c3ccc(C(F)(F)F)cc3F)ccc2OCCN1Cc1ncccn1 [Compound 11-105] the “inhibited (or reduced) the late sodium current” value was 45%.

Same assay, conditions: HEK293, percent block of late INa; compound at 1 μM; 10 μM Tefluthrin; read-out: Late INa 1 μM
Work on O=C1c2cc(-c3ccc(F)c(F)c3F)ccc2OCCN1Cc1ncccn1 [II-162, 4-(pyrimidin-2-ylmethyl)-7-(2,3,4-trifluorophenyl)-3,4-dihydrobenzo[f][1,4]oxazepin-5(2H)-one] yielded an inhibition at 1 µM of 20%. O=C1c2cc(-c3ccc(C(F)(F)F)cc3)ccc2OC[C@H]2CCCN12 [II-59, (R)-7-(4-(trifluoromethyl)phenyl)-2,3,11,11a-tetrahydrobenzo[f]pyrrolo[2,1-c][1,4]oxazepin-5(1H)-one] gave an inhibition at 1 µM of 15%. Cn1cc(CN2CCOc3ccc(-c4ccc(OC(F)(F)F)cc4)cc3C2=O)cn1 [II-160, 4-((1-methyl-1H-pyrazol-4-yl)methyl)-7-(4-(trifluoromethoxy)phenyl)-3,4-dihydrobenzo[f][1,4]oxazepin-5(2H)-one] gave an inhibition at 1 µM of 48%. In the case of Cc1cnc(CN2CCOc3ccc(-c4ccc(OC(F)(F)F)cc4)cc3C2=O)cn1 [II-172, 4-((5-methylpyrazin-2-yl)methyl)-7-(4-(trifluoromethoxy)phenyl)-3,4-dihydrobenzo[f][1,4]oxazepin-5(2H)-one], the inhibition at 1 µM is reported as 33%. Molecule CCOc1ccc(-c2ccc3c(c2)C(=O)N(Cc2ncccn2)CCO3)cc1 [II-123, 7-(4-ethoxyphenyl)-4-(pyrimidin-2-ylmethyl)-3,4-dihydrobenzo[f][1,4]oxazepin-5(2H)-one] has an inhibition at 1 µM of 21%. O=C1c2cc(-c3ccc(C(F)F)cc3)ccc2OCCN1Cc1ncccn1 [II-124, 7-(4-(difluoromethyl)phenyl)-4-(pyrimidin-2-ylmethyl)-3,4-dihydrobenzo[f][1,4]oxazepin-5(2H)-one] was tested, and the inhibition at 1 µM was 17%. For O=C1c2cc(-c3ccc(OC(F)(F)F)cc3)ccc2OCCN1Cc1nccc(N2CCCCC2)n1 [II-139, 4-((4-(piperidin-1-yl)pyrimidin-2-yl)methyl)-7-(4-(trifluoromethoxy)phenyl)-3,4-dihydrobenzo[f][1,4]oxazepin-5(2H)-one], the inhibition at 1 µM was 31%. CCN1CCN2C(=O)c3cc(-c4ccc(C(F)(F)F)cc4)ccc3OC[C@@H]2C1 [II-25, (S)-2-ethyl-8-(4-(trifluoromethyl)phenyl)-3,4,12,12a-tetrahydro-1H-benzo[f]pyrazino[2,1-c][1,4]oxazepin-6(2H)-one] was tested, and the inhibition at 1 µM was 25%. In the case of O=C1c2cc(-c3ccc(OC(F)(F)F)cc3)ccc2OCCN1CCN1CCCC1 [II-3, 4-(2-(pyrrolidin-1-yl)ethyl)-7-(4-(trifluoromethoxy)phenyl)-3,4-dihydrobenzo[f][1,4]oxazepin-5(2H)-one], the inhibition at 1 µM is reported as 15%. For Cc1cc(C(=O)N2CCOc3ccc(-c4ccc(OC(F)(F)F)cc4)cc3C2)nn1C [III-58, (1,5-dimethyl-1H-pyrazol-3-yl)(7-(4-(trifluoromethoxy)phenyl)-2,3-dihydrobenzo[f][1,4]oxazepin-4(5H)-yl)methanone], the inhibition at 1 µM was 26%. CC(C)COc1ccc(-c2ccc3c(c2)C(=O)N(Cc2ncccn2)CCO3)cc1 [II-97, 7-(4-isobutoxyphenyl)-4-(pyrimidin-2-ylmethyl)-3,4-dihydrobenzo[f][1,4]oxazepin-5 (2H)-one] was tested, and the inhibition at 1 µM was 36%. For O=C1c2cc(-c3ccc(OC(F)(F)F)cc3)ccc2OCCN1CCCS(=O)(=O)NC1CC1 [II-190, N-cyclopropyl-3-(5-oxo-7-(4-(trifluoromethoxy)phenyl)-2,3-dihydrobenzo[f][1,4]oxazepin-4(5H)-yl)propane-1-sulfonamide], the inhibition at 1 µM was 18%. CCS(=O)(=O)NCCN1CCOc2ccc(-c3ccc(OC(F)(F)F)cc3)cc2C1=O [II-178, N-(2-(5-oxo-7-(4-(trifluoromethoxy)phenyl)-2,3-dihydrobenzo[f][1,4]oxazepin-4(5H)-yl)ethyl)ethanesulfonamide] showed an inhibition at 1 µM of 19%. Cn1ccnc1C(=O)N1CCOc2ccc(-c3ccc(C(F)(F)F)cc3)cc2C1 [III-37, (1-methyl-1H-imidazol-2-yl)(7-(4-(trifluoromethyl)phenyl)-2,3-dihydrobenzo[f][1,4]oxazepin-4(5H)-yl)methanone] gave an inhibition at 1 µM of 41%. O=C(Cc1ncccn1)N1CCOc2ccc(-c3ccc(C(F)(F)F)cc3)cc2C1 [III-30, 2-(pyrimidin-2-yl)-1-(7-(4-(trifluoromethyl)phenyl)-2,3-dihydrobenzo[f][1,4]oxazepin-4(5H)-yl)ethanone] was tested, and the inhibition at 1 µM was 16%. O=C1c2cc(Nc3ccc(OC(F)(F)F)cc3)ccc2OCCN1Cc1ncccn1 [XIII-1, 4-(pyrimidin-2-ylmethyl)-7-(4-(trifluoromethoxy)phenylamino)-3,4-dihydrobenzo[f][1,4]oxazepin-5(2H)-one] gave an inhibition at 1 µM of 16%. CC(C)(C)Oc1cc(-c2ccc3c(c2)C(=O)N(Cc2ccccn2)CCO3)ccn1 [VI-4, 7-(2-tert-butoxypyridin-4-yl)-4-(pyridin-2-ylmethyl)-3,4-dihydrobenzo[f][1,4]oxazepin-5(2H)-one] showed an inhibition at 1 µM of 36%. O=C1c2cc(-c3ccc(OC(F)(F)F)cc3)ccc2OCCN1Cc1ccn(C2CCCC2)n1 [II-152, 4-((1-cyclopentyl-1H-pyrazol-3-yl)methyl)-7-(4-(trifluoromethoxy)phenyl)-3,4-dihydrobenzo[f][1,4]oxazepin-5(2H)-one] gave an inhibition at 1 µM of 23%. For O=C1c2cc(-c3ccc(C4CC4)s3)ccc2OCCN1Cc1ncccn1 [VI-36, 7-(5-cyclopropylthiophen-2-yl)-4-(pyrimidin-2-ylmethyl)-3,4-dihydrobenzo[f][1,4]oxazepin-5(2H)-one], the inhibition at 1 µM was 47%. In the case of N[C@@H]1C[C@H]2COc3ccc(-c4ccc(C(F)(F)F)cc4)cc3C(=O)N2C1 [II-21, (2R,11aS)-2-amino-7-(4-(trifluoromethyl)phenyl)-2,3,11,11a-tetrahydrobenzo[f]pyrrolo[2,1-c][1,4]oxazepin-5(1H)-one], the inhibition at 1 µM is reported as 18%. O=C1c2cc(-c3ccc(OC(F)(F)F)cc3)ccc2OCCN1CCNS(=O)(=O)c1ccccc1 [II-177, N-(2-(5-oxo-7-(4-(trifluoromethoxy)phenyl)-2,3-dihydrobenzo[f][1,4]oxazepin-4(5H)-yl)ethyl)benzenesulfonamide] gave an inhibition at 1 µM of 22%. With O=S1(=O)c2cc(-c3ccc(C(F)(F)F)cc3)ccc2OCCN1Cc1ncccn1 [IX-2, 2-((pyrimidin-2-yl)methyl)-8-(4-(trifluoromethyl)phenyl)-3,4-dihydro-2H-benzo[b][1,4,5]oxathiazepin-sulfone] the inhibition at 1 µM was 22%. O=C(c1ccccc1)N1CCOc2ccc(-c3ccc(OC(F)(F)F)cc3)cc2C1 [III-4, phenyl(7-(4-(trifluoromethoxy)phenyl)-2,3-dihydrobenzo[f][1,4]oxazepin-4(5H)-yl)methanone] gave an inhibition at 1 µM of 35%. In the case of O=C(c1cnccn1)N1CCOc2ccc(-c3ccc(OC(F)(F)F)cc3)cc2C1 [III-23, pyrazin-2-yl(7-(4-(trifluoromethoxy)phenyl)-2,3-dihydrobenzo[f][1,4]oxazepin-4(5H)-yl)methanone], the inhibition at 1 µM is reported as 26%. Work on O=C1c2cc(-c3ccc(OC(F)(F)F)cc3)ccc2OCCN1Cc1cc(-c2ccccn2)on1 [II-41, 4-((5-(pyridin-2-yl)isoxazol-3-yl)methyl)-7-(4-(trifluoromethoxy)phenyl)-3,4-dihydrobenzo[f][1,4]oxazepin-5(2H)-one] yielded an inhibition at 1 µM of 17%. O=C1c2cc(Nc3ccc(C(F)(F)F)cc3)ccc2OCCN1Cc1ncccn1 [XIII-3, 4-(pyrimidin-2-ylmethyl)-7-(4-(trifluoromethyl)phenylamino)-3,4-dihydrobenzo[f][1,4]oxazepin-5(2H)-one] gave an inhibition at 1 µM of 17%. Molecule O=C1c2cc(-c3ccc(OC(F)(F)F)cc3)ccc2OCCN1Cc1ncccc1F [II-164, 4-((3-fluoropyridin-2-yl)methyl)-7-(4-(trifluoromethoxy)phenyl)-3,4-dihydrobenzo[f][1,4]oxazepin-5(2H)-one] has an inhibition at 1 µM of 75%.

Source: patent US9676760B2, “Fused heterocyclic compounds as ion channel modulators” (Gilead Sciences, Inc., priority 2011, dated 2017)
